Assay results published in patent US20240254138A1, “TRICYCLIC PYRIMIDINES AS CYCLIN-DEPENDENT KINASE 7 (CDK7) INHIBITORS” (JANSSEN PHARMACEUTICA NV, priority 2021, published 2024).
Where two headings read alike, the source gives them in different places.

Columns and labels:
[1] = system: RNA Polymerase II Serine 5 phosphorylation (Rpb1 CTD, downstream substrate of CDK7) in A549 cells; assay: Imaging-based cellular RNA PolII Ser5 phosphorylation assay in A549 cells; format: cell-based, human; settings: wild-type CDK7, RNA PolII Ser5 phosphorylation, averaged over all measurements; for IC50: Homo sapiens, A549, A549 cells, read-out: CDK7_A549 Wild-type CDK7 (pIC50) (converted)
Summary of the method: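 IC50 derived by fitting % control (DMSO high, 10 μM reference low) against concentration, with Hill slope. Readout: high-content imaging of phospho-Ser5 Rpb1 CTD antibody staining in fixed, permeabilized A549 cells exposed to compound 3 h after 20 h culture in 1% FBS DMEM.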

[2] = biological target: CDK7/cyclinH/MAT1 trimeric complex (Homo sapiens, UniProt P50613); assay: In vitro CDK7 assay, potency of irreversible covalent inhibitors (kinact/KI), coupled PK/LDH ADP readout at 340 nm
Chain of CDK7/cyclinH/MAT1 trimeric complex (P50613 whole entry): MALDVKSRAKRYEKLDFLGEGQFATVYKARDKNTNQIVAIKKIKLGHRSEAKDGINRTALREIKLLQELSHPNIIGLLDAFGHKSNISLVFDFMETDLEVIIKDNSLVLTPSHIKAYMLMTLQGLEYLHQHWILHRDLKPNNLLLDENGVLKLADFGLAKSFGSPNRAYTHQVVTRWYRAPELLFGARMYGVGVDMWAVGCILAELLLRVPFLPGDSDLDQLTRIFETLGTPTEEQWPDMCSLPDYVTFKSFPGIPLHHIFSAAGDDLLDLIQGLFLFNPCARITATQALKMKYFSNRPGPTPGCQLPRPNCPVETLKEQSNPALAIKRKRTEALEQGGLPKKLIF
Chain of CDK7/cyclinH/MAT1 trimeric complex (P51946 whole entry partner): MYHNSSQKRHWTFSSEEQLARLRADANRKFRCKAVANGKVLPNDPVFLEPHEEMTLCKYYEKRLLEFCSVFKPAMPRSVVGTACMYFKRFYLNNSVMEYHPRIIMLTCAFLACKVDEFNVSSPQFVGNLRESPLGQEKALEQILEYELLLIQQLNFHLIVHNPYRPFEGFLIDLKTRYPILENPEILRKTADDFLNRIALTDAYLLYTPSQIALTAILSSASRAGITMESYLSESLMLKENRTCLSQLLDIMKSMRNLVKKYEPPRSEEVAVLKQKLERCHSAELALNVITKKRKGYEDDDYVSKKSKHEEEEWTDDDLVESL
Chain of CDK7/cyclinH/MAT1 trimeric complex (P51948 whole entry partner): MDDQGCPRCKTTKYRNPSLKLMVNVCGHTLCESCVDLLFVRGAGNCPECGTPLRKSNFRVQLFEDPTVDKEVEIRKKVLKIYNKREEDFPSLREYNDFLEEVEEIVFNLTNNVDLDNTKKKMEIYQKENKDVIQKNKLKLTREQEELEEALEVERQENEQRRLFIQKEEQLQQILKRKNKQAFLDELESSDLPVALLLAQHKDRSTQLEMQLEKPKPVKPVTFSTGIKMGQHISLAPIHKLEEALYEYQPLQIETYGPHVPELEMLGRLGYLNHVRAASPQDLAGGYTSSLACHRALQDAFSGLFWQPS

[3] = system: RNA Polymerase II Serine 5 phosphorylation in A549 cells overexpressing CDK7-mutant (C312S); assay: Imaging-based cellular RNA PolII Ser5 phosphorylation assay in A549 cells overexpressing CDK7-mutant (C312S); format: cell-based, human; settings: RNA PolII Ser5 phosphorylation, averaged over all measurements; for IC50: Homo sapiens, A549, A549 cells overexpressing CDK7-mutant (C312S), read-out: CDK7_A549 mutant hCDK7(pIC50) (converted)
Summary of the method: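 Readout was automated imaging of anti-phospho-Ser5 Rpb1 CTD immunofluorescence, with IC50 fitted to % control versus concentration. Cells were A549 stably overexpressing non-covalently targetable CDK7 C312S alongside wild-type, exposed to compound 3 h at 37 °C. DMSO and 10 μM reference compound served as controls.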

[4] = read-out: CDK7 (20 nM enz.) (kinact/KI, M^−1*s^−1), 20 nM enzyme
[5] = read-out: CDK7 (20 nM enz.) (kobs/[I], M^−1*s^−1), 20 nM enzyme
[6] = read-out: CDK7 (kinact/KI, M^−1*s^−1), potency of irreversible covalent inhibitors, 1 mM ATP, room temperature, averaged values over all measurements
[7] = CDK7 (20 nM enz.) (KI, μM), 20 nM enzyme
[8] = read-out: CDK7 (20 nM enz.) (kinact, s^−1), 20 nM enzyme

| Structure (SMILES) | IC50 [1] [nM] | kinact/KI [2, 4] [M⁻¹ s⁻¹] | IC50 [3] [nM] | Ki [2, 7] [µM] | further results |
| --- | --- | --- | --- | --- | --- |
| C=CC(=O)N1CC(N2CC[C@H](c3cc4c(c(C)n3)O[C@@H](C)c3c(N5CCOCC5)ccnc3N4)C2)C1 (single isomer, unassigned) [Compound 218] | 8510 | 0.84 | > 10000 |  | melting point: > 300 °C |
| C=CC(=O)N1CC(N2CCC(c3cc4c(c(C)n3)O[C@@H](C)c3c(N5CCOCC5)ccnc3N4)CC2)C1 (single isomer, unassigned) [Compound 265] | 2090 |  | > 10000 |  | melting point: 288.5 °C |
| C=CC(=O)N1CC(N2CC[C@@H](c3ccc4c(c3)Nc3nccc(N5CCOCC5)c3CO4)[C@@H](C)C2)C1 (mixture of isomers) [Compound 70] | 145 |  | > 10000 |  | kinact/KI [2, 5]: 634 M⁻¹ s⁻¹ |
| C=CC(=O)N1CC(N2CCC(c3ccc4c(c3)Nc3ncc(Cl)c(N5CCOCC5)c3CO4)CC2)C1 [Compound 13] | 135 |  | > 10000 |  | kinact/KI [2, 6]: 1040 M⁻¹ s⁻¹ |
| CC#CC(=O)N1CC(N2CCC(c3cc4c(c(C)n3)O[C@@H](C)c3c(N5CCOCC5)ccnc3N4)CC2)C1 (single isomer, unassigned) [Compound 344] | 3980 | 3.15 | > 10000 | 17.1 | kinact [2, 8]: 5.4e-05 s⁻¹ |
| C=CC(=O)N1CC[C@@H](N2CC(c3cc4c(c(C(F)(F)F)n3)OCc3c(N5CCOCC5)ccnc3N4)C2)C1 (single isomer, unassigned) [Compound 402] |  |  |  | 0.0823 | CDK7_A549 Wild-type CDK7 (pIC50) ([1]; A549 cells): 7.1; CDK7 (20 nM enz.) (kinact, s^−1) ([2]; 20 nM enzyme): 0.000126 s⁻¹; CDK7 (20 nM enz.) (kinact/KI, M^−1*s^−1) ([2]; 20 nM enzyme): 1530.27 M⁻¹ s⁻¹; CDK7_A549 mutant hCDK7(pIC50) ([3]; A549 cells overexpressing CDK7-mutant (C312S)): 5.15 |
| C=CC(=O)N1CC(N2CCC(c3ccc4c(c3)Nc3nccc(N5CCOC[C@@H]5C)c3CO4)CC2)C1 (single isomer, unassigned) [Compound 32] | 398 |  | > 10000 |  | Ki ([2]; CDK7 (KI(μM)), […], 1 mM ATP, room temperature, averaged values over all measurements): 0.177 µM; kinact ([2]; read-out: CDK7 (kinact, s^−1), kinact = maximal rate of inactivation, 1 mM ATP, room temperature, averaged values over all measurements): 0.000102 s⁻¹; kinact/KI [2, 6]: 578 M⁻¹ s⁻¹ |
| CC#CC(=O)N1CC(N2CC(c3cc4c(c(C)n3)O[C@@H](C)c3c(C5CCOCC5)ccnc3N4)C2)C1 (single isomer, unassigned) [Compound 487] | > 10000 | 1.54 | > 10000 |  |  |
| CC#CC(=O)N1CC(N2CC(c3cc4c(c(C)n3)O[C@H](C)c3c(C5CCOCC5)ccnc3N4)C2)C1 (single isomer, unassigned) [Compound 488] | ~302 | 129 | > 10000 | 0.328 | kinact [2, 8]: 4.23e-05 s⁻¹ |
| C=CC(=O)N1CC(N2CC[C@@H](c3ccc4c(c3)Nc3nccc(N5CCOCC5)c3CO4)C(C)(C)C2)C1 (single isomer, unassigned) [Compound 69] | 234 |  | > 10000 |  | kinact/KI [2, 5]: 529 M⁻¹ s⁻¹ |
| CC#CC(=O)N1CC(n2cc(-c3cc(C#N)c4c(c3)Nc3nccc(N5CCOCC5)c3[C@H](C)O4)cn2)C1 (single isomer, unassigned) [Compound 449] | 33.1 |  | 2340 |  | kinact/KI [2, 5]: 328 M⁻¹ s⁻¹ |
| CC#CC(=O)N1CC(N2CCC(c3cc4c(c(C5CC5)n3)O[C@@H](C)c3c(N5CCOCC5)ccnc3N4)CC2)C1 (single isomer, unassigned) [Compound 498] | 148 | 594 | > 10000 | 0.0867 | kinact [2, 8]: 5.15e-05 s⁻¹ |
| C=CC(=O)N1CC(N2CC(c3cc4c(c(C(F)(F)F)n3)OCc3c(N5CCOCC5)ccnc3N4)C2)C1 [Compound 235] | 70.8 |  | 9550 |  | CDK7 (20 nM enz.) (kobs/[I], M^−1*s^−1) ([2]; 20 nM enzyme): 962.5 M⁻¹ s⁻¹ |
| C=C(F)C(=O)N1CC(N2CCC(c3ccc4c(c3)Nc3nccc(C5CCOCC5)c3CO4)CC2)C1 [Compound 188] | 1070 | 59.6 | > 10000 | 0.507 | kinact [2, 8]: 3.02e-05 s⁻¹ |
